Test results reported in article PMC7827406, “Structure–Activity Relationship (SAR) Study of Spautin-1 to Entail the Discovery of Novel NEK4 Inhibitors” (International Journal of Molecular Sciences, 2021).
Like-named read-outs stand apart in the source and are kept apart here.

Key:
Assay in all cases: biochemical
Design in all cases: Eurofins KinaseProfiler full panel at Km ATP, residual kinase activity (%) relative to DMSO
[1] = molecular target: CDK14/cyclinY(h) (Homo sapiens, UniProt O94921)
Sequence of CDK14/cyclinY(h) (O94921 whole entry): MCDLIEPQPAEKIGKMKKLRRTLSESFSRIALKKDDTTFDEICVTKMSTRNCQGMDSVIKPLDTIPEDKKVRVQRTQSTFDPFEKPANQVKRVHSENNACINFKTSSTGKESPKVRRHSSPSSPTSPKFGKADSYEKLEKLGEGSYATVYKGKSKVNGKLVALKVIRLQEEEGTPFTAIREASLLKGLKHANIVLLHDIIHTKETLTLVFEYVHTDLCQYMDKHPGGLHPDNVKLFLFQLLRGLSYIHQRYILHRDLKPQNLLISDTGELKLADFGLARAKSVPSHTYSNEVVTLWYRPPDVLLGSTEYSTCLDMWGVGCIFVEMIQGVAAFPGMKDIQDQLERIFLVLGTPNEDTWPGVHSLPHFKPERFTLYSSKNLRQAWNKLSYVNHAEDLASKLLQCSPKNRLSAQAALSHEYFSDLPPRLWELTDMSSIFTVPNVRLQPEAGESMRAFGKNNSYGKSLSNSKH
Sequence of CDK14/cyclinY(h) (Q8ND76 whole entry partner): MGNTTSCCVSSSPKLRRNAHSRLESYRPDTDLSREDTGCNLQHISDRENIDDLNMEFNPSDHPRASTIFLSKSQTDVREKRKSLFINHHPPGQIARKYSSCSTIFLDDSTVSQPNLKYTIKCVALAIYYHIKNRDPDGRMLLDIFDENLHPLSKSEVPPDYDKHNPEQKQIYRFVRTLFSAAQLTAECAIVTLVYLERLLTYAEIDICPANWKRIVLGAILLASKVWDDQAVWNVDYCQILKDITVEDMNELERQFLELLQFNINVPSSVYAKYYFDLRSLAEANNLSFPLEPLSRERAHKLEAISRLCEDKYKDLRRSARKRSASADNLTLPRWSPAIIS
How it was run: (§1)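 Radiometric kinase activity assays were run with ATP at Km and compounds at 10 µM, and remaining activity (%) was reported. A separate competitive binding screen measured DNA-tagged kinase displaced from immobilized active-site ligands by qPCR, giving percent kinase still bound at 10 µM compound in DMSO.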

[2] = molecular target: T1, DCAMKL1(h) (Homo sapiens, UniProt O15075)
T1 construct: gene DCLK1
T1 sequence (O15075 1-740): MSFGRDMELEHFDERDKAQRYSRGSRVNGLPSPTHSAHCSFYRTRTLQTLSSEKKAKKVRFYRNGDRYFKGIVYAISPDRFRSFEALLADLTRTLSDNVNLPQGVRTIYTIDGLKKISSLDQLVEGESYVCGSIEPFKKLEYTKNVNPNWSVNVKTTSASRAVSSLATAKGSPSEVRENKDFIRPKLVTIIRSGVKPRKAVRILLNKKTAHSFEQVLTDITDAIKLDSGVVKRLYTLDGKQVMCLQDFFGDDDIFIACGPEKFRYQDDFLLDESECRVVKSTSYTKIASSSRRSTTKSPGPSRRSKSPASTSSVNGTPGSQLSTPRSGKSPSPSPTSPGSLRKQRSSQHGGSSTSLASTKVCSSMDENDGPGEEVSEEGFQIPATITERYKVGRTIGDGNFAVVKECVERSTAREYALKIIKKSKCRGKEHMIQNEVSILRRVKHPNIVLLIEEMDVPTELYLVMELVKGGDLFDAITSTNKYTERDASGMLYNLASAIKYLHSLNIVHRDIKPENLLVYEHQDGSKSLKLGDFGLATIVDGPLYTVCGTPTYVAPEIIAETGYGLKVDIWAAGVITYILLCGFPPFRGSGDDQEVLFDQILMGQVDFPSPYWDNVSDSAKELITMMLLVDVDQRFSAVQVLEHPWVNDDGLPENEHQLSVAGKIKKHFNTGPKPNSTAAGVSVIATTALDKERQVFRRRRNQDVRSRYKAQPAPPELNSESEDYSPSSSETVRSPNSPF
How it was run: as §1

[3] = molecular target: EphA4(h) (Homo sapiens, UniProt P54764)
Sequence of EphA4(h) (P54764 whole entry): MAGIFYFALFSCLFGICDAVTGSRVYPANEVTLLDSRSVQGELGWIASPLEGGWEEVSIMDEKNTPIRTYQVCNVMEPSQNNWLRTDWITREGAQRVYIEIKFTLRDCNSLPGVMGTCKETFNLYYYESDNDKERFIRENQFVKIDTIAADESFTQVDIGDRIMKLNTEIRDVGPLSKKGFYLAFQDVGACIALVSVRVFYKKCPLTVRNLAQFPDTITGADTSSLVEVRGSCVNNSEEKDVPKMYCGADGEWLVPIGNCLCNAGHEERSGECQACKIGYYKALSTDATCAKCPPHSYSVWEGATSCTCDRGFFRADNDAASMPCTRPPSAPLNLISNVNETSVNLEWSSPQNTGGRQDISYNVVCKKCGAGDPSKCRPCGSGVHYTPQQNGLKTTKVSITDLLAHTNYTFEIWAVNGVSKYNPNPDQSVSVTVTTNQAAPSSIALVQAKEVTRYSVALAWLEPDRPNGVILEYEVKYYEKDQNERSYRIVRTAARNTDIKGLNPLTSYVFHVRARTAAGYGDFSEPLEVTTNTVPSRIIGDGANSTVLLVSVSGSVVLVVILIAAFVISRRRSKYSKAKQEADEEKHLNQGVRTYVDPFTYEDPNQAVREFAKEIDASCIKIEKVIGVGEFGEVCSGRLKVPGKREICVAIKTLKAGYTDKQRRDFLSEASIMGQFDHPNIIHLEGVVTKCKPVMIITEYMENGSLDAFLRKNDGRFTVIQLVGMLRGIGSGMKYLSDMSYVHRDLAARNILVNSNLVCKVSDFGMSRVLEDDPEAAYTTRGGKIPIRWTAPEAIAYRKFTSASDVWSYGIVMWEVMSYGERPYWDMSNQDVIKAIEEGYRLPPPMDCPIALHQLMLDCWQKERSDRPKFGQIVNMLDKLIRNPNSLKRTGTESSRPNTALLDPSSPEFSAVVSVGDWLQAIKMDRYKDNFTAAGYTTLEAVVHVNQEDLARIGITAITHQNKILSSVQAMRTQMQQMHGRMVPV
How it was run: as §1

[4] = molecular target: T2, Flt3(D835Y)(h) (Homo sapiens, UniProt P36888, D835Y)
T2 sequence (P36888 1-993 D835Y): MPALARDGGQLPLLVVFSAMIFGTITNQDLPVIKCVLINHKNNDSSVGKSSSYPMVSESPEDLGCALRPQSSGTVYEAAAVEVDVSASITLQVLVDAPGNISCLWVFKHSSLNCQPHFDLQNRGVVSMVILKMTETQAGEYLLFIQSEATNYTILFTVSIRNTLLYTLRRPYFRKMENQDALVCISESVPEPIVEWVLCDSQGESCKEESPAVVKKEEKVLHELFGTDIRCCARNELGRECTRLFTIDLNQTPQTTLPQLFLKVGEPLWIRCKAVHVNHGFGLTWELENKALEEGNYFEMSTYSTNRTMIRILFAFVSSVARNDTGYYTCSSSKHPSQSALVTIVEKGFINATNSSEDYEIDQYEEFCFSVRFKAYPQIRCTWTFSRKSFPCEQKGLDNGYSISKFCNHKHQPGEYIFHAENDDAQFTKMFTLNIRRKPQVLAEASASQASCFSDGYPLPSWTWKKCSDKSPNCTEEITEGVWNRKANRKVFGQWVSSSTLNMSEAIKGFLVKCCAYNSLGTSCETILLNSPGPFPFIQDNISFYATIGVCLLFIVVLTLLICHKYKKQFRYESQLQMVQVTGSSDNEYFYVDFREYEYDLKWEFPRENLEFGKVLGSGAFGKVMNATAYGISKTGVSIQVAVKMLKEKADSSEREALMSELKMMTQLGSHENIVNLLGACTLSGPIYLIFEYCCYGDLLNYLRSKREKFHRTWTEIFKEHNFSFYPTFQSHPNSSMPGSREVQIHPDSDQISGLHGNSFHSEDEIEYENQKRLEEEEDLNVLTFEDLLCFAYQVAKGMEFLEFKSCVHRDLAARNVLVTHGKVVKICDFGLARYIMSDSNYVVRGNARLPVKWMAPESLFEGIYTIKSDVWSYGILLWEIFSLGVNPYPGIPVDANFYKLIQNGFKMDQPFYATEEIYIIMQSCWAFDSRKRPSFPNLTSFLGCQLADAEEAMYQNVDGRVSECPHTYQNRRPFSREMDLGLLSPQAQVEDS
How it was run: as §1

[5] = molecular target: Met(h) (Homo sapiens, UniProt P08581)
Sequence of Met(h) (P08581 whole entry): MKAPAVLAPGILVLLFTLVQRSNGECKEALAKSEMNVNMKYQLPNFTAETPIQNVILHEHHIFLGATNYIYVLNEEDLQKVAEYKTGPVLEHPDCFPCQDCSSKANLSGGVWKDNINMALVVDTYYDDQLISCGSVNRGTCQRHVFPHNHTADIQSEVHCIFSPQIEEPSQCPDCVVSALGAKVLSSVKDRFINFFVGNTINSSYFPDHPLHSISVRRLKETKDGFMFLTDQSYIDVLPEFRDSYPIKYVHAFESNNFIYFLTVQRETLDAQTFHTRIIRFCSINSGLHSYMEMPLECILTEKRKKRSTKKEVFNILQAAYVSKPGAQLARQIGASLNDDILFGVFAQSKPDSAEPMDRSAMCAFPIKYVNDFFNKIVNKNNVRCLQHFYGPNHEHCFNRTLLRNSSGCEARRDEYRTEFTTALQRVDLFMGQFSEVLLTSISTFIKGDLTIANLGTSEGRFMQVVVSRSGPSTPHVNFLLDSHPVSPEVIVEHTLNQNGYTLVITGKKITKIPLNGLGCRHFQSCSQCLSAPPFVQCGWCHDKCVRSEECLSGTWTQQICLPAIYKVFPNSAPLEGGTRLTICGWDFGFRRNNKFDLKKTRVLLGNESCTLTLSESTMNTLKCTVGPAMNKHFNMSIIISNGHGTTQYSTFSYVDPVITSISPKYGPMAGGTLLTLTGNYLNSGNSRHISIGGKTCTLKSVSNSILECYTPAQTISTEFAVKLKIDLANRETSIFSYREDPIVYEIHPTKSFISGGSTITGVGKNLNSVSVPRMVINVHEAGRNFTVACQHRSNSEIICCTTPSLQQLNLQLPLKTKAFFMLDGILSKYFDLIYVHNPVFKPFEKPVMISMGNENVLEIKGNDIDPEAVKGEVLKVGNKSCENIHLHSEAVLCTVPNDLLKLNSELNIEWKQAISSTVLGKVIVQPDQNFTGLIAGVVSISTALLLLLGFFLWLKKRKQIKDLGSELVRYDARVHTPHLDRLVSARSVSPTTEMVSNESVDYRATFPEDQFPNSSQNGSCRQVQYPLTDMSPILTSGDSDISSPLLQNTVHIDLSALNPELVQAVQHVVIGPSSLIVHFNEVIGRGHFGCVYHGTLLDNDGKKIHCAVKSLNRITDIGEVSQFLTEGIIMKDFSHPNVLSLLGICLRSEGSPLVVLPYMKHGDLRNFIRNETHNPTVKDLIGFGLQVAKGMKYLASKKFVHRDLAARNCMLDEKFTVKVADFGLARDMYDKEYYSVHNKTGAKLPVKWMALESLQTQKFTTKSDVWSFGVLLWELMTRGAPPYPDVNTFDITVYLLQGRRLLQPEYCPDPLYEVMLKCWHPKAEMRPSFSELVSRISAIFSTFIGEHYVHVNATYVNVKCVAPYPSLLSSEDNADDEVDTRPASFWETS
How it was run: as §1

[6] = molecular target: T3, PDHK2(h) (Homo sapiens, UniProt Q15119)
T3 construct: gene PDK2
How it was run: as §1

[7] = molecular target: T4, PKR(h) (Homo sapiens, UniProt P19525)
T4 construct: gene EIF2AK2
T4 sequence (P19525 whole entry): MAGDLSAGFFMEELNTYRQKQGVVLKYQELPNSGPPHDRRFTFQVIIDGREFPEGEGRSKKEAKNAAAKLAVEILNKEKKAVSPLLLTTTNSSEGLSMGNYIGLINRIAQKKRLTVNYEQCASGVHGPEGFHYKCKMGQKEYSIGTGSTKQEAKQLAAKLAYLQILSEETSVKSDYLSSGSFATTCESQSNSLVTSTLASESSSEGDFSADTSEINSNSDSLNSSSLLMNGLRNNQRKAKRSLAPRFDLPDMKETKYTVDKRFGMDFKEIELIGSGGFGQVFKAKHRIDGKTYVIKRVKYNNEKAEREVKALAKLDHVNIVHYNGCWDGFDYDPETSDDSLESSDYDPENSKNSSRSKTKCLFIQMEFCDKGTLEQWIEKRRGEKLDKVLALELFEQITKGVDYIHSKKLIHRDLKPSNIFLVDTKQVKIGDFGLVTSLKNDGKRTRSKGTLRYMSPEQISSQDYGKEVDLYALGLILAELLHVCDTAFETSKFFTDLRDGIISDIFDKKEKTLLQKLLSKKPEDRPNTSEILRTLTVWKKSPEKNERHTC
How it was run: as §1

[8] = molecular target: STK25(h) (Homo sapiens, UniProt O00506)
Sequence of STK25(h) (O00506 whole entry): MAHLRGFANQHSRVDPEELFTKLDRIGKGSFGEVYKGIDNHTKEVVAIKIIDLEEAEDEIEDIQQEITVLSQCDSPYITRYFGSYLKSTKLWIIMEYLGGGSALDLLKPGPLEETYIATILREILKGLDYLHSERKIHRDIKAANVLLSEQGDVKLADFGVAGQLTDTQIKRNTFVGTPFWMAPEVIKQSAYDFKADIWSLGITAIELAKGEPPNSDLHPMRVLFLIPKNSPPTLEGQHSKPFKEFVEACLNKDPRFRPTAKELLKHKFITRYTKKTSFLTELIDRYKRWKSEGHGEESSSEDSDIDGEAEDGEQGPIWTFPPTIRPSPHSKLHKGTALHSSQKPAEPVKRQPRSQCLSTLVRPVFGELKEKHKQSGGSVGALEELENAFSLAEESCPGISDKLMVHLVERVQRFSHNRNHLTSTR
How it was run: as §1

[9] = read-out: Residual activity (%) 5ay
[10] = read-out: Residual activity (%) Spautin-1 5aa
[11] = read-out: Residual activity (%) 5at
[12] = read-out: Residual activity (%) 5as

COc1ccc2ncnc(Nc3cccc(F)c3)c2c1 [5ay, N-(3-Fluorophenyl)-6-Methoxy-4-Quinazolinamine]
remaining activity at 10 µM [1, 9]: 93%
remaining activity at 10 µM [2, 9]: 84%
remaining activity at 10 µM [3, 9]: 86%
remaining activity at 10 µM [4, 9]: 49%
remaining activity at 10 µM [5, 9]: 72%
remaining activity at 10 µM [6, 9]: 94%
remaining activity at 10 µM [7, 9]: 71%
remaining activity at 10 µM [8, 9]: 114%

Fc1ccc(CNc2ncnc3ccc(F)cc23)cc1 [5aa, 6-Fluoro-N-(4-fluorobenzyl)-4-Quinazolinamine]
remaining activity at 10 µM [1, 10]: 107%
remaining activity at 10 µM [2, 10]: 95%
remaining activity at 10 µM [3, 10]: 89%
remaining activity at 10 µM [4, 10]: 91%
remaining activity at 10 µM [5, 10]: 82%
remaining activity at 10 µM [6, 10]: 103%
remaining activity at 10 µM [7, 10]: 100%
remaining activity at 10 µM [8, 10]: 114%

Fc1ccc2ncnc(NCCc3ccc(Cl)cc3)c2c1 [5at, N-[2-(4-Chlorophenyl)Ethyl]-6-Fluoro-4-Quinazolinamine]
remaining activity at 10 µM [1, 11]: 109%
remaining activity at 10 µM [2, 11]: 89%
remaining activity at 10 µM [3, 11]: 80%
remaining activity at 10 µM [4, 11]: 80%
remaining activity at 10 µM [5, 11]: 112%
remaining activity at 10 µM [6, 11]: 87%
remaining activity at 10 µM [7, 11]: 94%
remaining activity at 10 µM [8, 11]: 111%

Fc1ccc(CCNc2ncnc3ccc(F)cc23)cc1 [5as, 6-Fluoro-N-[2-(4-Fluorophenyl)Ethyl]-4-Quinazolinamine]
remaining activity at 10 µM [1, 12]: 103%
remaining activity at 10 µM [2, 12]: 82%
remaining activity at 10 µM [3, 12]: 83%
remaining activity at 10 µM [4, 12]: 87%
remaining activity at 10 µM [5, 12]: 57%
remaining activity at 10 µM [6, 12]: 93%
remaining activity at 10 µM [7, 12]: 98%
remaining activity at 10 µM [8, 12]: 112%
